Among the data in a melting point compilation (Tetko et al.; mined from patent text by program, amines drawn as free bases though some values may be those of a salt) are melting point values, retold here.

SMILES strings stand for the structures.

The compound `ON=C1Cc2ccccc2C1` showed a melting point of 145 to 148 °C.
The compound `CNC(=O)c1ccc(-c2coc3ccc(-c4nnc(C)o4)cc23)c(Cl)c1` gave a melting point of 250 to 251 °C.
In the case of `O=C(C=Cc1ccc(-c2ccc(OCCCN3CCCCC3)cc2)cc1)N1CCCCC1` it was 146 to 150 °C.
In the case of `CC(C)(C)c1cc2c(c(C(C)(C)C)c1)OC(=O)C2c1ccc(C#N)cc1` (stereo unspecified) it was 136 to 137 °C; in that of `CC1(C)CCC(=O)Nc2cc(OCCCCN3CCN(c4cccc(Cl)c4Cl)CC3)ccc21`, 106 to 108 °C; in that of `CON=C(C(C)=O)C(=O)OC`, 64.4 °C.
For `CC(C)(C)c1cc(CCc2n[nH]c(=O)o2)cc(C(C)(C)C)c1O` the value was 120 to 123 °C; for `Cc1c(CC(=O)O)c2cc(OCc3csc(-c4ccccc4)n3)ccc2n1Cc1csc(-c2ccc(Cl)cc2)n1`, 178 to 180 °C; for `COC(=O)C[C@H]1[C@H](C(=O)N(C)OC)C(=O)N1C(c1ccccc1)(c1ccccc1)c1ccccc1`, 168 to 169 °C.
`COC(=O)C(CCSC)NC(=O)c1ccc(NC(=O)C2CC(O)CN2C(=O)OC(C)(C)C)cc1-c1ccccc1` (stereo unspecified): the melting point lay within 121 to 123 °C.
Compound `COc1ccc(CN(C)CCCCCc2ccc(NC(=O)c3cccc4c(=O)c5ccccc5[nH]c34)cc2)cc1OC` registered a melting point of 110 °C.
For `Cc1cc(-c2ccc(C(F)(F)F)cc2)cn2c(C(=O)O)cnc12` the value was 211 °C; for `COC(=O)c1c(C)c(O)cc(OC)c1Cl`, 92 °C; for `C=Cc1ccc(C(=O)OC(C)(C)C)c(C#N)c1`, 51 to 53 °C.
Consider `CNC(=NC#N)NCc1ncc(-c2csc(N=C(N)N)n2)s1`, for which the melting point lay within 258 to 259 °C.
For `O=C1C(=O)c2c(nc3cc(Cl)ccn23)-c2ccccc21`, the melting point is more than 300 °C.
The compound `CCCCCCc1c(C(C)C)nc(C(C)C)c(C(C)O)c1-c1ccc(F)cc1` (stereo unspecified) yielded a melting point of 75 to 77 °C.
Compound `CCC(C)(C)Nc1c(NCc2ccc(F)cc2)c(=O)c1=O` displayed a melting point of 255 to 257 °C.
In the case of `CCOC(=O)c1cn(-c2ncnn2C)c2cc(F)c(F)cc2c1=O` it was 230 to 231 °C; in that of `Cc1c(Cc2ccccc2)c2c(c(C)c1NC(=O)CC(C)(C)C)CC(C)(C)O2`, 129 to 130 °C; in that of `Cc1nn2c(-c3ccncc3)ccnc2c1C#N`, 220 to 221 °C.
In turn, `O=C(O)c1ccc(OCCCCl)cc1` came in with a melting point of 136 to 138 °C.
Consider `CC(c1ccccc1)(c1ccc(O)cc1)c1ccc(O)cc1`, for which the melting point was in the range of 185 to 187 °C.
For `CCCCCCCCOCC(O)COc1ccc(-n2nc3ccccc3n2)c(O)c1` (stereo unspecified) the value was 51 to 55 °C.
In the case of `O=C(c1cc(Cl)ccc1Cl)c1ccccc1I` it was 64 to 66 °C; in that of `O=C(O)c1c[nH]c(=S)n1C1Cc2cc(F)cc(F)c2C1` (stereo unspecified), 230 to 232 °C; in that of `COc1ccc(-c2ccnc(N3CCN(c4c(C)c(C)c5c(c4C)CC(C)(C)O5)CC3)n2)cc1`, 156 to 159 °C.
For `CC[C@@H]1O[C@](C#Cc2ccoc2)(C(F)(F)F)c2cc(Cl)ccc2NC1=O` (relative stereo) the value was 169 to 170 °C; for `CCCC[C@]1(CC)CS(=O)(=O)c2cc(O)c(O)cc2[C@@H](c2ccccc2)N1`, 117 to 118 °C.
For `CCN(N)c1cnn(-c2cccc(C(F)(F)F)c2)c(=O)c1`, the melting point was 108 to 110 °C.
In turn, `COC(=O)[C@H]1Cc2ccc(C)cc2C(=O)[C@H](C)S1` (relative stereo) had a melting point of 99 to 100 °C.
In the case of `COc1nc(OC)nc(Oc2cccc3c2C(=S)OC3C)n1` (stereo unspecified) it was 177 to 178 °C; in that of `O=S(=O)(c1ccc(Cl)c2ccccc12)N1CC2CCC(CC2)C1`, 134 to 137 °C; in that of `CCOC(=O)c1oc2ccc([N+](=O)[O-])cc2c1OC`, 90 to 90.4 °C.
For `NC(=O)n1nc(-c2ccc(F)cc2)cc1N` the value was 140 °C; for `OC(Cc1ccc(Cl)cc1)(Cn1cncn1)Cn1cncn1`, 116 to 118 °C.
In the case of `OCCCOc1c(Cl)cc(OCC=C(Cl)Cl)cc1Cl` it was 56.6 °C; in that of `Cc1ccc(C(=O)NCc2cc(C(C)(C)O)cc(C(F)(F)F)c2)cc1Nc1nccc(-c2cccnc2)n1`, 253 to 258 °C; in that of `Cc1ccc(S(=O)(=S)OCCCCCCCCCCOS(=O)(=S)c2ccc(C)cc2)cc1` (stereo unspecified), 76 to 82 °C.
`Sc1c(Cl)cc(Cl)c(Cl)c1S` registered a melting point of 115 to 116 °C.
For `CCN1C(=O)Cc2cc(C(=O)c3ccccc3)ccc21` the value was 134 to 136 °C; for `CCN(CC)CCOCCC1CCCCN1C(=O)N1c2ccccc2C(=O)Nc2cccnc21` (stereo unspecified), 134 to 136 °C; for `CC(=O)SCCC(=O)N1c2ccc(C)cc2CCC1C(=O)O` (stereo unspecified), 118 to 120 °C.
In the case of `Nc1nc2c(nnn2COC(CO)CO)c(=O)[nH]1` it was 233 to 234 °C; in that of `CC(C)S(=O)(=O)Nc1cc(C(=O)c2ccccc2)ccc1N`, 150 to 152 °C.
For `CC1(C)CC(O)c2cc(N)ccc21` (stereo unspecified) the value was 118 °C.
Compound `CCOC(=O)CN1c2ccccc2N(C)C(=O)c2cccnc21` came in with a melting point of 99 to 100 °C.
`CCOC(=O)c1cc(CC)sc1Nc1cc(F)c(F)cc1[N+](=O)[O-]` came in with a melting point of 105 °C.
For `CC(C)(C)OC(=O)[C@@H]1CS[C@H](c2ccccc2)N1C(=O)CNC(=O)Nc1cccc(CC(=O)O)c1` the value was 140 °C; for `CON(C(=O)c1cn(C)nc1C(F)F)C(C)Cc1c(Cl)cc(Cl)cc1Cl` (stereo unspecified), 110 to 112 °C.
In the case of `O=C(O)c1cc2cc(F)c(C(F)(F)F)cc2[nH]1` it was 178 to 180 °C; in that of `COC(=O)CCc1cc(-n2nc3ccc(Br)cc3n2)c(O)c(C(C)(C)C)c1`, 116 to 118 °C.
For `C=C1c2ccccc2CC(NO)c2ccccc21` (stereo unspecified), the melting point lay within 145 to 147 °C.
In the case of `CC(C)NC(=O)OCC(=O)c1cccc(Br)c1` it was 125 to 129 °C; in that of `COCCOc1cc(C)nc(NC(=O)NS(=O)(=O)c2ccccc2Cl)n1`, 130 to 140 °C.
In the case of `CCOC(=O)c1cc([N+](=O)[O-])cn1CCC(C)C` it was 46 to 47 °C.
As to `CCOC(=O)/C=C(C)/C(F)=C/C=C(C)/C=C/c1c(Cl)cc(OC)c(C)c1Cl`, the melting point was 127 to 132 °C.
`COC(=O)c1cccc(C2C(C#N)=C(N)Oc3c2ccc2cccnc32)c1` (stereo unspecified) came in with a melting point of 198 to 200 °C.
As to `N#Cc1cnc2ccsc2c1Cl`, the melting point lay in the range of 105 to 107 °C.
As to `NS(=O)(=O)c1ccc(-c2cc3n(c2-c2ccc(F)cc2)CCC3)cc1`, the melting point stood at 207 °C.
Compound `N#CCCSCc1csc(NC(=N)N)n1` had a melting point of 127 to 128 °C.
In the case of `OC(Cn1cnnc1)(Cn1cncn1)Cn1cncn1` it was 220 °C; in that of `Cc1[nH]c(=O)c(C#N)cc1-c1ccc(S(C)(=O)=O)cc1`, 312 to 313 °C.
The compound `CN1CCC(=C2c3cc(Cl)ccc3CC(=O)c3sccc32)CC1` showed a melting point of 168 to 169 °C.
Turning to `CC(C)c1cc(O)nc(-c2ccc(Cl)cc2)n1`, the melting point turned out to be 164 °C.
For `S=c1nc(-c2ccc(-c3ccccc3)cc2)[nH]n1Cc1ccccc1` the value was 249 to 250 °C; for `Cn1c(SCC(=O)C23CC4CC(CC(C4)C2)C3)nnc1C1CC1`, 96 to 97.5 °C; for `CN(C(CCn1c(=O)cc(C(F)(F)F)[nH]c1=O)C(=O)NO)S(=O)(=O)c1ccc(Oc2ccc(F)cc2)cc1` (stereo unspecified), 163 to 164 °C.
For `c1ccc(Sc2c[nH]c3ncccc23)cc1` the value was 188 to 189 °C; for `Nc1cc(=O)[nH]c(=O)n1C1CCc2ccccc21` (stereo unspecified), more than 295 °C.
In the case of `C=C(CN(C)C)C(O)c1ncc2c(c1O)COC2c1ccc(OC)cc1` (stereo unspecified) it was 169 to 170 °C; in that of `NC(=O)c1cc([N+](=O)[O-])cc(Br)n1`, 179 to 180 °C; in that of `CC1(C)CC(Br)c2cc(C#N)ccc2O1` (stereo unspecified), 94 to 95 °C.
`Cc1c(F)c(F)c(COC(=O)C(c2cnc(C(C)(C)C)nc2)C(C)(C)C)c(F)c1F` (racemic): the melting point came out at 91 °C.
Regarding `Cc1ccc(CN2Cc3cncn3C(c3ccc(C#N)cc3)C2=O)cc1` (stereo unspecified), the melting point fell in the range of 168 to 170 °C.
The compound `CCOc1c(C)c(NC(=O)CC(C)(C)C)c(C)c2c1OCC2c1ccc(C(C)C)cc1` (stereo unspecified) yielded a melting point of 174 to 175 °C.
In the case of `CS(=O)(=O)CCC(=O)Nc1ccc(OCC(O)CO)cc1` (stereo unspecified), the melting point lay within 160 to 162 °C.
For `CC(CCNC(=O)c1ccc(OC(F)(F)F)cc1)CC(C)(C)CNC(=O)c1ccc(OC(F)(F)F)cc1` (stereo unspecified) the value was 97 to 99 °C; for `CSC1=Nc2ccccc2Cn2cccc21`, 148 to 150 °C; for `CC(C)(O)C(C(=O)O)c1ccc(F)cc1` (stereo unspecified), 86 to 88 °C.
Turning to `COC(=O)c1ccc(C=C2CCn3c2nc2cc(N)ccc2c3=O)cc1`, the melting point was 292 to 295 °C.
In the case of `CCOC(=O)c1nc2cc(Br)c(Cl)cc2[nH]c1=O` it was 203 to 205 °C; in that of `Cc1cc[nH]c(=O)c1NC(=O)c1ccccc1`, 264 to 265 °C; in that of `c1ccc(COc2ccc(COc3ccc(CCCn4ccnc4)cc3)cn2)cc1`, 84 to 85 °C.
Consider `O=C1N=c2cccc(OCCN3CCC(Cc4ccccc4)CC3)c2=NC1=O`, for which the melting point was 244 to 245 °C.
In the case of `O=C(Nc1nc(-c2ccco2)c(C(=O)C2CCOCC2)s1)c1ccc(CN2CCCCC2)cc1` it was 160 to 162 °C.
In the case of `C=CCNC(=NCCSCc1[nH]cnc1C)NC#N` it was 113 to 114 °C.
In turn, `c1ccc(-c2noc3ccccc23)c(CNCc2ccccc2-c2noc3ccccc23)c1` came in with a melting point of 138 °C.
In the case of `O=C(O)c1cc(F)c(N2CCNCC2)nc1Nc1ccc(F)cc1F` it was 279 to 281 °C; in that of `O=C1c2cc(Cl)ccc2COc2ccccc21`, 82 to 83 °C; in that of `CC(=O)c1cc(Cl)cc(Oc2ncccc2C(=O)NCc2ccc(C(C)(C)O)cc2)c1`, 110 to 112 °C.
